Where “and” joins values, the source holds several entries; their conditions need not be identical. Equal values may be shown once. Inconclusive results and toxic doses are left out. Rule for the calls: active = survival T/C of 150% or more; inactive = T/C below 125% in these data.
System: CD2F1 mice, L1210 leukemia ip, survival T/C
Experiment: NCI In Vivo Anticancer Drug Screen. Data for tumor model L1210 Leukemia (intraperitoneal) in CD2F1 (CDF1) mice
Details: endpoint: mean survival time, higher = longer survival
Summary of the method: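 Mice carrying a transplanted tumor received test compound or vehicle alone. The value is the measurement in the treated group divided by that in the vehicle-treated control group.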

[1] = dose: 100.0 mg/kg/injection, schedule: Q04DX003 (ip), vehicle: saline with Tween-80
[2] = dose: 200.0 mg/kg/injection, schedule: Q04DX003 (ip), vehicle: saline with Tween-80
[3] = dose: 400.0 mg/kg/injection, schedule: Q04DX003 (ip), vehicle: saline with Tween-80
[4] = dose: 100.0 mg/kg/injection, schedule: Q01DX009 (ip), vehicle: saline with Tween-80
[5] = dose: 200.0 mg/kg/injection, schedule: Q01DX009 (ip), vehicle: saline with Tween-80
[6] = dose: 400.0 mg/kg/injection, schedule: Q01DX009 (ip), vehicle: saline with Tween-80
[7] = dose: 50.0 mg/kg/injection, schedule: Q04DX002 (ip), vehicle: saline with Tween-80
[8] = dose: 100.0 mg/kg/injection, schedule: Q04DX002 (ip), vehicle: saline with Tween-80
[9] = dose: 200.0 mg/kg/injection, schedule: Q04DX002 (ip), vehicle: saline with Tween-80

Measured: T/C

Cc1cc(N(CC(C)Cl)CC(C)Cl)ccc1N=Nc1ccccc1C(=O)O (centres undefined)
inactive: dose: 1.56 mg/kg/injection, schedule: Q01DX009 (ip), vehicle: Klucel (hydroxypropylcellulose) (HPC) 104 % of control | dose: 3.12 mg/kg/injection, schedule: Q01DX009 (ip), vehicle: Klucel (hydroxypropylcellulose) (HPC) 104 % of control | dose: 6.25 mg/kg/injection, schedule: Q01DX009 (ip), vehicle: Klucel (hydroxypropylcellulose) (HPC) 117 % of control and 109 % of control | dose: 12.5 mg/kg/injection, schedule: Q01DX009 (ip), vehicle: Klucel (hydroxypropylcellulose) (HPC) 111 % of control

CON(C)N=Nc1ccc(C(N)=O)cc1
inactive: dose: 4.68 mg/kg/injection, schedule: Q01DX009 (ip), vehicle: Klucel (hydroxypropylcellulose) (HPC) 96 % of control and 110 % of control | dose: 9.37 mg/kg/injection, schedule: Q01DX009 (ip), vehicle: Klucel (hydroxypropylcellulose) (HPC) 87 % of control and 109 % of control | dose: 18.75 mg/kg/injection, schedule: Q01DX009 (ip), vehicle: Klucel (hydroxypropylcellulose) (HPC) 96 % of control and 101 % of control | dose: 37.5 mg/kg/injection, schedule: Q01DX009 (ip), vehicle: Klucel (hydroxypropylcellulose) (HPC) 98 % of control and 104 % of control | dose: 75.0 mg/kg/injection, schedule: Q01DX009 (ip), vehicle: Klucel (hydroxypropylcellulose) (HPC) 100 % of control and 103 % of control | dose: 150.0 mg/kg/injection, schedule: Q01DX009 (ip), vehicle: Klucel (hydroxypropylcellulose) (HPC) 114 % of control and 103 % of control | dose: 300.0 mg/kg/injection, schedule: Q01DX009 (ip), vehicle: Klucel (hydroxypropylcellulose) (HPC) 114 % of control

C1COC2(CCC3C2C2CCC4(OCCO4)C32)O1 (centres undefined)
inactive: [1] 103 % of control | [2] 101 % of control | [3] 116 % of control

CN(C)C
inactive: [4] 103 % of control | [1] 102 % of control | [5] 101 % of control | [2] 105 % of control | [6] 105 % of control | [3] 104 % of control

N#C/C(=C\c1cc(Cl)cc(Cl)c1O)C(/C(C#N)=C/c1cc(Cl)cc(Cl)c1O)c1ccc2c(c1)OCO2 (centres undefined)
inactive: [4] 101 % of control | [1] 101 % of control | [5] 94 % of control | [2] 97 % of control | [6] 105 % of control | [3] 103 % of control

C1=CN2CCCN3C=CC=c4ccc(c2c43)=C1
inactive: dose: 7.5 mg/kg/injection, schedule: Q01DX001 (ip), vehicle: saline 101 % of control | dose: 7.5 mg/kg/injection, schedule: Q04DX003 (ip), vehicle: saline 97 % of control | dose: 15.0 mg/kg/injection, schedule: Q01DX001 (ip), vehicle: saline 95 % of control | dose: 15.0 mg/kg/injection, schedule: Q04DX003 (ip), vehicle: saline 105 % of control | dose: 30.0 mg/kg/injection, schedule: Q01DX001 (ip), vehicle: saline 95 % of control | dose: 30.0 mg/kg/injection, schedule: Q04DX003 (ip), vehicle: saline 97 % of control

CC(=O)OCC1OC(n2ncc3c(Sc4c([N+](=O)[O-])ncn4C)ncnc32)C(OC(C)=O)C1OC(C)=O (centres undefined)
inactive: dose: 25.0 mg/kg/injection, schedule: Q01DX009 (ip), vehicle: other 100 % of control | dose: 50.0 mg/kg/injection, schedule: Q01DX009 (ip), vehicle: other 102 % of control | dose: 100.0 mg/kg/injection, schedule: Q01DX009 (ip), vehicle: other 100 % of control

O=C(NC/C(Br)=C/Br)Nc1cccc2c1CCCC2
inactive: [1] 96 % of control | [2] 101 % of control | [3] 90 % of control

Cc1ccc(Cl)c(I)c1
inactive: dose: 100.0 mg/kg/injection, schedule: Q01DX001 (ip), vehicle: Klucel (hydroxypropylcellulose) (HPC) 101 % of control | dose: 200.0 mg/kg/injection, schedule: Q01DX001 (ip), vehicle: Klucel (hydroxypropylcellulose) (HPC) 103 % of control | dose: 400.0 mg/kg/injection, schedule: Q01DX001 (ip), vehicle: Klucel (hydroxypropylcellulose) (HPC) 106 % of control

N#CC(CC(=O)c1ccccc1)c1ccccc1 (centres undefined)
inactive: [1] 90 % of control | [2] 102 % of control | [3] 104 % of control

C[C@]12CC[C@H](O)C[C@@H]1CC[C@@H]1[C@@H]2C(=O)C[C@@]2(C)[C@H]1CC[C@]2(O)C(=O)CBr
inactive: dose: 100.0 mg/kg/injection, schedule: Q01DX009 (sc), vehicle: steriod suspending solution 97 % of control | dose: 100.0 mg/kg/injection, schedule: Q04DX003 (sc), vehicle: steriod suspending solution 97 % of control | dose: 200.0 mg/kg/injection, schedule: Q01DX009 (sc), vehicle: steriod suspending solution 94 % of control | dose: 200.0 mg/kg/injection, schedule: Q04DX003 (sc), vehicle: steriod suspending solution 95 % of control | dose: 400.0 mg/kg/injection, schedule: Q01DX009 (sc), vehicle: steriod suspending solution 90 % of control | dose: 400.0 mg/kg/injection, schedule: Q04DX003 (sc), vehicle: steriod suspending solution 95 % of control

COC(OC)c1ccc(Cl)nc1
inactive: dose: 100.0 mg/kg/injection, schedule: Q01DX001 (ip), vehicle: saline with Tween-80 98 % of control | [4] 96 % of control | dose: 200.0 mg/kg/injection, schedule: Q01DX001 (ip), vehicle: saline with Tween-80 101 % of control | [5] 94 % of control | dose: 400.0 mg/kg/injection, schedule: Q01DX001 (ip), vehicle: saline with Tween-80 101 % of control | [6] 92 % of control

CN1CC2C3CCC(C3)C2(C)C1O (centres undefined)
inactive: [7] 103 % of control | [8] 103 % of control | [9] 87 % of control

ClC1(Cl)C2CCCCCCC21 (centres undefined)
inactive: dose: 100.0 mg/kg/injection, schedule: Q01DX001 (ip), vehicle: saline sonified 95 % of control | dose: 100.0 mg/kg/injection, schedule: Q01DX009 (ip), vehicle: saline sonified 103 % of control | [8] 91 % of control | dose: 200.0 mg/kg/injection, schedule: Q01DX001 (ip), vehicle: saline sonified 105 % of control | dose: 200.0 mg/kg/injection, schedule: Q01DX009 (ip), vehicle: saline sonified 101 % of control | [9] 95 % of control | dose: 400.0 mg/kg/injection, schedule: Q01DX001 (ip), vehicle: saline sonified 100 % of control | dose: 400.0 mg/kg/injection, schedule: Q01DX009 (ip), vehicle: saline sonified 103 % of control

CCCCCC(O)CCC(=O)NN (centres undefined)
inactive: dose: 100.0 mg/kg/injection, schedule: Q04DX003 (ip), vehicle: saline 100 % of control | dose: 200.0 mg/kg/injection, schedule: Q04DX003 (ip), vehicle: saline 117 % of control

N=C(N)c1ccc(OCCCCOc2ccc(N)cc2)cc1
inactive: dose: 50.0 mg/kg/injection, schedule: Q01DX009 (ip), vehicle: Klucel (hydroxypropylcellulose) (HPC) 101 % of control | dose: 100.0 mg/kg/injection, schedule: Q01DX009 (ip), vehicle: Klucel (hydroxypropylcellulose) (HPC) 94 % of control | dose: 200.0 mg/kg/injection, schedule: Q01DX009 (ip), vehicle: Klucel (hydroxypropylcellulose) (HPC) 119 % of control

CCn1c(=O)c2nc(Cl)n(C3OCC(OC(C)=O)C(OC(C)=O)C3OC(C)=O)c2n(CC)c1=O (centres undefined)
inactive: dose: 12.5 mg/kg/injection, schedule: Q01DX005 (ip), vehicle: distilled water + Tween-80 96 % of control | dose: 25.0 mg/kg/injection, schedule: Q01DX005 (ip), vehicle: distilled water + Tween-80 96 % of control | dose: 50.0 mg/kg/injection, schedule: Q01DX005 (ip), vehicle: distilled water + Tween-80 96 % of control | dose: 100.0 mg/kg/injection, schedule: Q01DX005 (ip), vehicle: distilled water + Tween-80 98 % of control | dose: 200.0 mg/kg/injection, schedule: Q01DX005 (ip), vehicle: distilled water + Tween-80 98 % of control

COC(=O)c1cccn1C(=O)c1cc(OC)c(OC)cc1[N+](=O)[O-]
inactive: [7] 96 % of control | [8] 92 % of control and 93 % of control | [9] 96 % of control | dose: 400.0 mg/kg/injection, schedule: Q04DX002 (ip), vehicle: saline with Tween-80 89 % of control

CCOC(=O)c1c(C)[nH]c(C)cc1=O
inactive: dose: 100.0 mg/kg/injection, schedule: Q04DX002 (ip), vehicle: saline 103 % of control | dose: 200.0 mg/kg/injection, schedule: Q04DX002 (ip), vehicle: saline 108 % of control

CC(=O)Cc1nc(N)nc(Nc2ccc(Cl)c(Cl)c2)n1
inactive: dose: 100.0 mg/kg/injection, schedule: Q01DX009 (ip), vehicle: saline 96 % of control | dose: 200.0 mg/kg/injection, schedule: Q01DX009 (ip), vehicle: saline 97 % of control | dose: 400.0 mg/kg/injection, schedule: Q01DX009 (ip), vehicle: saline 111 % of control

COc1cc(OC)c(NC(=O)Oc2ccc3ccccc3c2)cc1Cl
inactive: dose: 50.0 mg/kg/injection, schedule: Q01DX009 (ip), vehicle: saline with Tween-80 94 % of control | [4] 94 % of control | [5] 97 % of control

Reference: PubChem BioAssay AID256 (DTP/NCI, 2004)
